One test addresses T1, SHIP2 (Homo sapiens, UniProt O15357).
T1 sequence (O15357 1-1258): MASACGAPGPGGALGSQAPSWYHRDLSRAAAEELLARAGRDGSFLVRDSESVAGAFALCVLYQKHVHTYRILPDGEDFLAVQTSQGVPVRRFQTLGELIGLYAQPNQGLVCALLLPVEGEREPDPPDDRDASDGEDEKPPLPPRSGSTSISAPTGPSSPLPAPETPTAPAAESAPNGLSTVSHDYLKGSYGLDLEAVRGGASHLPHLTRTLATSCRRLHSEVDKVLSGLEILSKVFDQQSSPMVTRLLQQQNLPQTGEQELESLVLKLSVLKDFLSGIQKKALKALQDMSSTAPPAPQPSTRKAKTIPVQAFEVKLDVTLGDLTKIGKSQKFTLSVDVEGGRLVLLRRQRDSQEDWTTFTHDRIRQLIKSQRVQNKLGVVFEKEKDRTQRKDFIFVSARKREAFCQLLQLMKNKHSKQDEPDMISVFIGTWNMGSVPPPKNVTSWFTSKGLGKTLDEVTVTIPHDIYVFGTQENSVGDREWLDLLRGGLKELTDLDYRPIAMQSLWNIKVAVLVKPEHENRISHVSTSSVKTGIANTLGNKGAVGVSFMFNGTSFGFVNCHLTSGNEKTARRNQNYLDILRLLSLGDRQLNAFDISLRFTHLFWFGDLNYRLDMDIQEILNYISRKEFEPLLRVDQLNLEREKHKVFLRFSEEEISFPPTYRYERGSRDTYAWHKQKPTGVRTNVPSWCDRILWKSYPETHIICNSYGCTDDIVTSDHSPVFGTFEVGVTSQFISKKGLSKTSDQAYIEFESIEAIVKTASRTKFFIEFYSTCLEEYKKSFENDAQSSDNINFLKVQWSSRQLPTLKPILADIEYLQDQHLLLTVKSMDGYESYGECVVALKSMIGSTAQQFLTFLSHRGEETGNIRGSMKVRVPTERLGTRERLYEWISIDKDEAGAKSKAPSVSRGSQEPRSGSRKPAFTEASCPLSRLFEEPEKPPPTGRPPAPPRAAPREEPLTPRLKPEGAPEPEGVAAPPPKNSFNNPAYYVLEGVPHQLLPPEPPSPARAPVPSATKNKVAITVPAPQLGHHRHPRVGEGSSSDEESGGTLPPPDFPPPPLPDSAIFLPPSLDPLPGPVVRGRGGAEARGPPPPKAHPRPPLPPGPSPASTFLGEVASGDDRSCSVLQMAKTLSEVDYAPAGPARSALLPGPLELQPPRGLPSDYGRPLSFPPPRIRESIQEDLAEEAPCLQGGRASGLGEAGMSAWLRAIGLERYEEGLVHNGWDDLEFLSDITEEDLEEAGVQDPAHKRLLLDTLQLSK
The settings on record: Suwa et al. 2009; cited from earlier work.

Test [1] deals with RMA-Rael cells. Kind of test: Overall survival of RMA-Rael tumor challenged hosts (Kaplan-Meier). Type of test: in vivo, mice. To be noted: C57BL/6 hosts, 1×10^5 RMA-Rael. The procedure:
FIGS. 6A-6I show the survival of tumor bearing mice treated with a SHIP inhibitor. […] Hosts were treated on the day of tumor challenge and the following day as in FIG. 1. The 2-day treatment course was repeated each week for the duration of survival. […] Mice received either NK cell depleting, anti-NK1.1 antibody (PK136), or isotype control antibody prior to tumor challenge (5×10^5 RMA-Rael). The hosts received SHIP inhibitor two consecutive days each week until death. […] The hosts were treated on the day of tumor challenge and the following day as in FIG. 1. The 2-day treatment course was repeated each week for the duration of survival.
The most clinically relevant endpoint in any cancer therapy study is not a measured decrease in tumor burden, but instead, a significant increase in survival promoted by the treatment.
In order to further define 3AC′s capacity to control malignancy through immunomodulatory effects the capacity of 3AC to promote resistance of NSG, TcRa^−/− and NK cell depleted hosts to RMA-Rael tumor challenge was examined. As before, mice received treatment with 3AC or vehicle for two consecutive days each week followed by a five-day cessation of treatment to prevent disarming and/or exhaustion. This treatment strategy was continued indefinitely and survival was monitored (FIG. 6A). To confirm that, in addition to the chemotherapeutic effect documented in FIG. 5, 3AC-induced enhanced-NK and -T cell activity is important for the survival benefit following tumor challenge, NSG mice (mice deficient of all lymphocyte lineages) were challenged.
To determine if T cells are required for the 3AC-mediated survival benefit, the same expirement using TcRa^−/− hosts that lack a TcR-ab^+ T cell compartment was repeated. […] To directly test the requirement for an intact NK cell compartment for 3AC-mediated increased survival after tumor challenge, the experiment as described in FIG. 6A were repeated challenging C57BL/6 hosts that were first depleted of
NK cells. Here, prior to tumor challenge, hosts were injected with either NK cell depleting anti-NK1.1 antibody (C57BL/6-DNK) or with antibody isotype control (C57BL/6-iso) (FIG. 6B).
The SHIP1 inhibitor 3AC was then tested in a genetic model in which the molecular target, SHIP1, was absent in a key target population of T cells, which are required for protection in the RMA-Rael lymphoma challenge model. […] Thus, SHIP inhibitor protection after tumor challenge is lost when the T cell compartment lacks the molecular target (SHIP1) in T cells.
There are two paralogs of SHIP: SHIP1 which is expressed in a limited range of tissues including hematopoietic cells, and SHIP2 which is expressed by a wide array of cell types. To determine if SHIP2 may also play a role in host defense against malignancy as described above tumor bearing mice were treated with small-molecule inhibitors against SHIP2 as well. […] Stem Cells. (2015); 33: 848-858; Hoekstra, E. et al., Lipid phosphatase SHIP2 functions as oncogene in colorectal cancer by regulating PKB activation. Oncotarget. (2016) 7: 73525-73540). Like 3AC, pan-SHIP1/2 inhibitors such as K118 are also cytotoxic for RMA-Rael cells in vitro. The pan SHIP1/2 inhibitory compounds K118 and K149 were compared to the SHIP1 selective compound 3AC.
Simultaneous inhibition of both SHIP1and SHIP2 may be deleterious to the immune response promoted by 3AC. […] In the study, the SHIP1 selective inhibitor 3AC that provides for protection after RMA-Rael challenge was simulataneously co-administered.

In test [2] the test system is RMA-Rael cells. Kind of test: RMA-Rael viability following in vitro treatment. To be noted: 24 h, doses given as 5-20 pM, vs solvent only. Type of test: cell-based, mice. From the text: FIGS. 5A-5I show the effects of SHIP1 inhibitor as a chemotherapeutic. […] FIG. 5D and FIG. 5E show the representative histograms and box-and-whisker plots of FasL expression by NK cells from C56BL/6 (p=0.0002; Unpaired t test with Welch's correction) or RAG1−/− (p<0.0001; Mann-Whitney U test) tumor challenged, SHIP inhibitor or vehicle treated hosts. […] (NK cells p=0.0192; Unpaired t test with Welch's correction. T cells p=0.0659; Mann-Whitney U test). Additionally, FIGS. 5A-5G show the analysis by flow cytometry on day 3 after hosts receive SHIP inhibitor or vehicle for two consecutive days. NK cells are defined as NK1.1+CD3ε−. The graphs are representative of at least two independent experiments with at least four SHIP inhibitor and vehicle treated mice. […] Viability is expressed as frequency at a given concentration expressed as a percentage of solvent only treated cells. The kill curve summarizes pooled data from three independent experiments using six replicate wells/concentration with mean ±SEM indicated (n=18 per group. One-way ANOVA with Dunnett's multiple comparisons. 0 pM vs. 20 pM Adjusted p value =0.0001. 0 pM vs. 15 pM Adjusted p value =0.0001. 0 pM vs. 10 pM Adjusted p value =0.0001. 0 pM vs. 7.5 pM Adjusted p value =0.0001. 0 pM vs. 5 pM Adjusted p value =0.0001). […]

Another test relates to SHIP1/2. The settings on record: Brooks et al. 2015; Hoekstra et al. 2016; cited from earlier work.

For `C[C@H](NC(=O)c1sccc1OCc1ccc(Cl)cc1)c1ccccc1` [AS1949490], at SHIP2, the “selectivity for SHIP2” value is recorded as “high degree of selectivity”. Besides, in the test with RMA-Rael cells [1] (FIG. 6I, alone vs vehicle), the “overall survival (protection)” value is reported as “no protection”. In addition, the “overall survival (effect on protection by 3AC)” value with RMA-Rael cells [1] (FIG. 6I, co-administered with 3AC) is listed as “completely abrogated the protective effect of 3AC”.

In the case of `C[C@@]12CCC[C@H]1[C@@H]1CC[C@H]3C[C@@H](N)CC[C@]3(C)[C@H]1CC2.Cl` [Compound K118, 3β-amino-5α-androstane hydrochloride], the “overall survival (protection)” value in the test with RMA-Rael cells [1] (FIG. 6H, vs vehicle) was “no protection”. Also, the “RMA-Rael viability (direct killing)” value in the test on RMA-Rael cells [2] was “cytotoxic”. Besides, the SHIP1/2 inhibitory activity entry in the test on SHIP1/2 is on record as “pan-SHIP1/2 inhibitory activity”.

Consider `CSc1ccc2c(c1)c(CCN)c(C)n2Cc1ccc(Cl)cc1.Cl` [Compound K149, 2-[1-(4-chlorobenzyl)-2-methyl-5-(methylmercapto)-1H-3-yl] ethanaminium chloride], for which the “overall survival (protection)” value in the test on RMA-Rael cells [1] (FIG. 6H, vs vehicle) is listed as “no protection”. In the test on SHIP1/2, the SHIP1/2 inhibitory activity result is listed as “pan-SHIP1/2 inhibitory activity”.

The values are drawn from patent US11952328B2, “Selective ship inhibitors for treating disease” (THE RESEARCH FOUNDATION FOR THE STATE UNIVERSITY OF NEW YORK, priority 2018, dated 2024).
